According to ChEMBL document CHEMBL4507262, “Data for DCP probe A-1596586” (2021):

Assays:
[1] = target: Calcium/calmodulin-dependent protein kinase kinase 1 (Homo sapiens) (UniProt Q8N5S9); settings: Compound concentration 1000.0 nM
[2] = target: Dual specificity protein kinase CLK4 (Homo sapiens) (UniProt Q9HAZ1); settings: Compound concentration 1000.0 nM
[3] = target: Aurora kinase C (Homo sapiens) (UniProt Q9UQB9); settings: Compound concentration 1000.0 nM
[4] = target: Phosphatidylinositol 4-phosphate 5-kinase type-1 gamma (Homo sapiens) (UniProt O60331); settings: Compound concentration 1000.0 nM
[5] = target: Tyrosine-protein kinase BTK (Homo sapiens) (UniProt Q06187); settings: Compound concentration 1000.0 nM
[6] = tested on: Tyrosine-protein kinase ABL1 (Homo sapiens), P00519 [H396P]; settings: Compound concentration 1000.0 nM
[7] = target: Mitogen-activated protein kinase kinase kinase 10 (Homo sapiens) (UniProt Q02779); settings: Compound concentration 1000.0 nM
[8] = target: Epithelial discoidin domain-containing receptor 1 (Homo sapiens) (UniProt Q08345); settings: Compound concentration 1000.0 nM
[9] = target: Tyrosine-protein kinase receptor Tie-1 (Homo sapiens) (UniProt P35590); settings: Compound concentration 1000.0 nM
[10] = target: cGMP-inhibited 3',5'-cyclic phosphodiesterase 3A (Homo sapiens) (UniProt Q14432); test: PDE3A (h) Eurofins-Cerep enzyme and uptake assay; settings: Compound concentration 10.0 uM
[11] = target: Bone morphogenetic protein receptor type-1A (Homo sapiens) (UniProt P36894); settings: Compound concentration 1000.0 nM
[12] = target: T1, Muscarinic acetylcholine receptor M5 (Homo sapiens) (UniProt P08912); settings: Compound concentration 10.0 uM
T1 sequence (whole entry): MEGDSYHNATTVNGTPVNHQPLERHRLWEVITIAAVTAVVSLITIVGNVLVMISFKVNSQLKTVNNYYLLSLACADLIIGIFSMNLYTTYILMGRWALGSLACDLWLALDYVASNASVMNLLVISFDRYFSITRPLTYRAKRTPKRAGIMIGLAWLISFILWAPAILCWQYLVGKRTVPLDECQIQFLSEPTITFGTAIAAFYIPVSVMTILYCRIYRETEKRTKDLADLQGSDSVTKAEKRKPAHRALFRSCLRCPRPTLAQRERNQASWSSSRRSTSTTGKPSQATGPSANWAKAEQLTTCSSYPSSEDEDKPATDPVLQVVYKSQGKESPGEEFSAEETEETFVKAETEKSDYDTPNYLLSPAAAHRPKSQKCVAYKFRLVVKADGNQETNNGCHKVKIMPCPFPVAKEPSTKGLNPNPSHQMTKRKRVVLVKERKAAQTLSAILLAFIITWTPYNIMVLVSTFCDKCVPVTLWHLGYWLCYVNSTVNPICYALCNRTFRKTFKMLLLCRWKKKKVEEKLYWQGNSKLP

[13] = target: Androgen receptor (Homo sapiens) (UniProt P10275); test: AR (h) Eurofins-Cerep binding assay; set-up: ligand concentration 1 nM; settings: filed as agonist, Compound concentration 10.0 uM
[14] = target: Mitogen-activated protein kinase 12 (Homo sapiens) (UniProt P53778); settings: Compound concentration 1000.0 nM
[15] = target: Serine/threonine-protein kinase MARK1 (Homo sapiens) (UniProt Q9P0L2); settings: Compound concentration 1000.0 nM
[16] = target: Myotonin-protein kinase (Homo sapiens) (UniProt Q09013); settings: Compound concentration 1000.0 nM
[17] = target: Tyrosine-protein kinase Fyn (Homo sapiens) (UniProt P06241); settings: Compound concentration 1000.0 nM
[18] = target: Dual specificity mitogen-activated protein kinase kinase 3 (Homo sapiens) (UniProt P46734); settings: Compound concentration 1000.0 nM
[19] = target: Mitogen-activated protein kinase kinase kinase 3 (Homo sapiens) (UniProt Q99759); settings: Compound concentration 1000.0 nM
[20] = target: Prostaglandin G/H synthase 2 (Homo sapiens) (UniProt P35354); test: COX2(h) Eurofins-Cerep enzyme and uptake assay; settings: Compound concentration 10.0 uM
[21] = target: Tyrosine-protein kinase Fer (Homo sapiens) (UniProt P16591); settings: Compound concentration 1000.0 nM
[22] = target: Serine/threonine-protein kinase 3 (Homo sapiens) (UniProt Q13188); settings: Compound concentration 1000.0 nM
[23] = target: Alpha-2C adrenergic receptor (Homo sapiens) (UniProt P18825); settings: Compound concentration 10.0 uM
[24] = target: Serine/threonine-protein kinase LATS1 (Homo sapiens) (UniProt O95835); settings: Compound concentration 1000.0 nM
[25] = target: Dual specificity mitogen-activated protein kinase kinase 4 (Homo sapiens) (UniProt P45985); settings: Compound concentration 1000.0 nM
[26] = target: Beta-adrenergic receptor kinase 1 (Homo sapiens) (UniProt P25098); settings: Compound concentration 1000.0 nM
[27] = target: Hormonally up-regulated neu tumor-associated kinase (Homo sapiens) (UniProt P57058); settings: Compound concentration 1000.0 nM
[28] = target: voltage-gated Na+ channel (site 2) (Rattus norvegicus, UniProt F1LQQ7+O08562+O88420+O88457+P04774+P04775+P08104+P15389+P15390+Q62968); test: Na+ channel (site 2) Eurofins-Cerep binding assay; format: protein assay; set-up: incubation time 60 min, incubation temperature 37°C, ligand concentration 10 nM; settings: rat cerebral cortex, probe [3H]batrachotoxin (10 nM), compound concentration 10 uM, read-out: % Inhibition of Control Specific Binding (Mean n=2)
[29] = target: Casein kinase II subunit alpha (Homo sapiens) (UniProt P68400); settings: Compound concentration 1000.0 nM
[30] = target: Tyrosine-protein kinase FRK (Homo sapiens) (UniProt P42685); settings: Compound concentration 1000.0 nM
[31] = target: STE20-like serine/threonine-protein kinase (Homo sapiens) (UniProt Q9H2G2); settings: Compound concentration 1000.0 nM
[32] = target: Casein kinase I isoform gamma-3 (Homo sapiens) (UniProt Q9Y6M4); settings: Compound concentration 1000.0 nM
[33] = target: Glycogen synthase kinase-3 alpha (Homo sapiens) (UniProt P49840); settings: Compound concentration 1000.0 nM
[34] = target: 5-hydroxytryptamine receptor 1B (Homo sapiens) (UniProt P28222); test: 5-HT1B(h) Eurofins-Cerep binding assay; set-up: ligand concentration 1 nM; settings: filed as antagonist, Compound concentration 10.0 uM
[35] = tested on: ALK tyrosine kinase receptor (Homo sapiens), Q9UM73 [L1196M]; settings: Compound concentration 1000.0 nM
[36] = target: Mitogen-activated protein kinase kinase kinase kinase 5 (Homo sapiens) (UniProt Q9Y4K4); settings: Compound concentration 1000.0 nM

Sequence of cGMP-inhibited 3',5'-cyclic phosphodiesterase 3A (Homo sapiens) (Q14432 whole entry): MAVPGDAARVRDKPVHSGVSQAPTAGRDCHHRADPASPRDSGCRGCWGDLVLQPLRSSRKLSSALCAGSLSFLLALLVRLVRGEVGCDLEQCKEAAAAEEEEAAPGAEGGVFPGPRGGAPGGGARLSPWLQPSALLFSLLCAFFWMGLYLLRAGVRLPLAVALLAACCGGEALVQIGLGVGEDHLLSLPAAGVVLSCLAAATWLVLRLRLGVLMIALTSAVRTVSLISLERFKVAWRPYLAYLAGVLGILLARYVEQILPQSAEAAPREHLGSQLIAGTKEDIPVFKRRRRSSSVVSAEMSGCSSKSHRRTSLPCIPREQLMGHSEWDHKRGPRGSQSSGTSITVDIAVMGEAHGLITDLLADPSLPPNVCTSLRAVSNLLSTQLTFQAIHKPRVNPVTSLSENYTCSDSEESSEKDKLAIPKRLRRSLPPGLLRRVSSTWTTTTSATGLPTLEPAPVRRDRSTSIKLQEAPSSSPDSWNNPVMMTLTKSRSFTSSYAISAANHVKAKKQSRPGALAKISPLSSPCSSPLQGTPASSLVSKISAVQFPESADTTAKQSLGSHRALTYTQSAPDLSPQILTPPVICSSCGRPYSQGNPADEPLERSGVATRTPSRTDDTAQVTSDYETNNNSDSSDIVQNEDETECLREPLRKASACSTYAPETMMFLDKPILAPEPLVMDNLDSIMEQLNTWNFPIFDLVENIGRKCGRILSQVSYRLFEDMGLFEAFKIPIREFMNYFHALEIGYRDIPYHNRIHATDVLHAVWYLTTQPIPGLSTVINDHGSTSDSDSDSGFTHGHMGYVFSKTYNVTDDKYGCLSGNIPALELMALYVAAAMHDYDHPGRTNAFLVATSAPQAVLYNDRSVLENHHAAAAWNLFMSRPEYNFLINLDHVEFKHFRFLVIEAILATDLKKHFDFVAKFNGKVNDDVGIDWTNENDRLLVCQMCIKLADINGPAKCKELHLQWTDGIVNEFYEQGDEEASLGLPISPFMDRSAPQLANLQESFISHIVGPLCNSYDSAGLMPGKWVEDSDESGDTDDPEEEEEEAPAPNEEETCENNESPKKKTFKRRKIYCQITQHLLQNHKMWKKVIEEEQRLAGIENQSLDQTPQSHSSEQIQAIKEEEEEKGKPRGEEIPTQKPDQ
Sequence of Aurora kinase C (Homo sapiens) (Q9UQB9 whole entry): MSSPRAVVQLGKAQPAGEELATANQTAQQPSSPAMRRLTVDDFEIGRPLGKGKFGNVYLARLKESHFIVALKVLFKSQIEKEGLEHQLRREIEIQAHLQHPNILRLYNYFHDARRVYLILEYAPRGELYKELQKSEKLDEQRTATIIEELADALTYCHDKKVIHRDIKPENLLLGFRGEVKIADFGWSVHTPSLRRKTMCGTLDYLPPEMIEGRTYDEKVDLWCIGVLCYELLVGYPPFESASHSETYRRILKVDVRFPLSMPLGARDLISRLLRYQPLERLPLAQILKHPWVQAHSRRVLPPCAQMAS
Sequence of Casein kinase II subunit alpha (Homo sapiens) (P68400 whole entry, looked up): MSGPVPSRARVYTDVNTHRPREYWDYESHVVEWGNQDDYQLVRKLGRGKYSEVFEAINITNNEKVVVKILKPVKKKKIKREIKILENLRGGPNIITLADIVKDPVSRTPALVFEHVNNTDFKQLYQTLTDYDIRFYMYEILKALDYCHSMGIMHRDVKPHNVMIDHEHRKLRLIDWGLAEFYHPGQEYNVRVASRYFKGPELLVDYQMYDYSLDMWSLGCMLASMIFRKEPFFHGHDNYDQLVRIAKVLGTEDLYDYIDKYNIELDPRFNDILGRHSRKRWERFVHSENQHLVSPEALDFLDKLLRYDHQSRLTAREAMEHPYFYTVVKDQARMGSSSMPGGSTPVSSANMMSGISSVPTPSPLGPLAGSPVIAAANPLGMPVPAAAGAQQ
Sequence of Dual specificity protein kinase CLK4 (Homo sapiens) (Q9HAZ1 whole entry, looked up): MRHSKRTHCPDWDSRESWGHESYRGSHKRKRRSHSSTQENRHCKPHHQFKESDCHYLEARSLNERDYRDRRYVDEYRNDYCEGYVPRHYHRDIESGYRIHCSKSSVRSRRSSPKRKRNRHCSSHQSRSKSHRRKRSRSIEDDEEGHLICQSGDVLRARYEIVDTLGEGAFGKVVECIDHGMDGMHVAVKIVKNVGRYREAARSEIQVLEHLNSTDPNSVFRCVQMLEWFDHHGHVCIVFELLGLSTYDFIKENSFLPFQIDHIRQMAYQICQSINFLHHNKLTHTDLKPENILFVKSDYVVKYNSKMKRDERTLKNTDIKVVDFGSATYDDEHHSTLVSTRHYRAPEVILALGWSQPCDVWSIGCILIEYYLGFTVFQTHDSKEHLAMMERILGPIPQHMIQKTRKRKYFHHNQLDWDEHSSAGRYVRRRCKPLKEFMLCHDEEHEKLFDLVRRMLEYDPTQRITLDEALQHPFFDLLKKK
Sequence of Casein kinase I isoform gamma-3 (Homo sapiens) (Q9Y6M4 whole entry, looked up, canonical isoform): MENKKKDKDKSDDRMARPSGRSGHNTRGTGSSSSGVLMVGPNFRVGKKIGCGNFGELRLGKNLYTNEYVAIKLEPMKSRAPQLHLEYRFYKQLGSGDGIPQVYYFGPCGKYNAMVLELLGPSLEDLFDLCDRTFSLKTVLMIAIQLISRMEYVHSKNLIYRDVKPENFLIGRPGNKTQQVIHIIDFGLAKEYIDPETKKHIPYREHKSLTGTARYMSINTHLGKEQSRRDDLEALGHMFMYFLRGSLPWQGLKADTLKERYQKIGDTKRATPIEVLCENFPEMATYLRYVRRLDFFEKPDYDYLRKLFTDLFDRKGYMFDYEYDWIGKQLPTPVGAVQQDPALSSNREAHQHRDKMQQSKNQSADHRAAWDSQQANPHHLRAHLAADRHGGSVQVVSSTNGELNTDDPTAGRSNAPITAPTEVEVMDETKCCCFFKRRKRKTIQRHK
Sequence of Hormonally up-regulated neu tumor-associated kinase (Homo sapiens) (P57058 whole entry): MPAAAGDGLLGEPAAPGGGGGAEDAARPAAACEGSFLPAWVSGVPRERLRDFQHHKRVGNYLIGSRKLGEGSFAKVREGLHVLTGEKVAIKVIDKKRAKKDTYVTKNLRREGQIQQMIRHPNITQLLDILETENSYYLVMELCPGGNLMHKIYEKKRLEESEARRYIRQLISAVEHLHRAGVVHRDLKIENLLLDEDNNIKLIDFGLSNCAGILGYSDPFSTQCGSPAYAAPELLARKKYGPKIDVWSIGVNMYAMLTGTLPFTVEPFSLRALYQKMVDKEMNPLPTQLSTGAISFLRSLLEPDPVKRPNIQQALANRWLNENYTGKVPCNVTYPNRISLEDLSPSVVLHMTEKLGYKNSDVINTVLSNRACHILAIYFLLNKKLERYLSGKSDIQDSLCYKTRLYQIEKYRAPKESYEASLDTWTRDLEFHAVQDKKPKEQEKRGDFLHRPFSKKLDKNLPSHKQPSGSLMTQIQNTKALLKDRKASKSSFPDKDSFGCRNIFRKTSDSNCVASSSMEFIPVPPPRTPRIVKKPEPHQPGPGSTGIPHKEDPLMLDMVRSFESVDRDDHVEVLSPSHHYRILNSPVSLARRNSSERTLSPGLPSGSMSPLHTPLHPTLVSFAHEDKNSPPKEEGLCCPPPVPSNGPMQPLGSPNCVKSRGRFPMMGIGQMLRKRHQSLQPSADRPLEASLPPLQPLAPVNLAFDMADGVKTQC
Sequence of Mitogen-activated protein kinase kinase kinase 10 (Homo sapiens) (Q02779 whole entry, looked up, the tested form may be a part): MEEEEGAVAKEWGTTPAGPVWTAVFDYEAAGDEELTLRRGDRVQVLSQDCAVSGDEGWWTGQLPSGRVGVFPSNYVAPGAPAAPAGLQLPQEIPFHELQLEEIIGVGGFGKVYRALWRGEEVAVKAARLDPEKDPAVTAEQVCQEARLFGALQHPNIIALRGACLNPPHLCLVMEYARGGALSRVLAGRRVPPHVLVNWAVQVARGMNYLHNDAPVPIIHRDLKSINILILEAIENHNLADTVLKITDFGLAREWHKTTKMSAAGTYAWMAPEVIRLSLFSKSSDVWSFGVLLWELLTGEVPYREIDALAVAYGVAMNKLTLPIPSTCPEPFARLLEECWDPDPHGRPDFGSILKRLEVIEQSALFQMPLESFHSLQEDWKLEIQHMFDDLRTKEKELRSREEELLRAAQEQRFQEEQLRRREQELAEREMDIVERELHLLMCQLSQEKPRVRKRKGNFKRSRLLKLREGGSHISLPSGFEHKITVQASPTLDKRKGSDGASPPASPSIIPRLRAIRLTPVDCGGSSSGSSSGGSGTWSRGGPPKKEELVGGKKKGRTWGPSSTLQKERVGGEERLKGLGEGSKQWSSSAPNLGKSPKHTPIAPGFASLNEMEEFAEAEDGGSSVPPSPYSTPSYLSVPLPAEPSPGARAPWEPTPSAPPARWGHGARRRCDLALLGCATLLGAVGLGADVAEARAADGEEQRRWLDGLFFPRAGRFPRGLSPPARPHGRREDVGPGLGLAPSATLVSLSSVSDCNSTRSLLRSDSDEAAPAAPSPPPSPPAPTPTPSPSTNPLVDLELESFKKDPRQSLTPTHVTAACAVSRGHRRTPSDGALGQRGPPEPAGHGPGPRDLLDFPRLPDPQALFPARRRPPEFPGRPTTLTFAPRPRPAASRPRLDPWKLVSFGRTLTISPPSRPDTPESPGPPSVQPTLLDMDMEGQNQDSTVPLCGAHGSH
Sequence of Alpha-2C adrenergic receptor (Homo sapiens) (P18825 whole entry): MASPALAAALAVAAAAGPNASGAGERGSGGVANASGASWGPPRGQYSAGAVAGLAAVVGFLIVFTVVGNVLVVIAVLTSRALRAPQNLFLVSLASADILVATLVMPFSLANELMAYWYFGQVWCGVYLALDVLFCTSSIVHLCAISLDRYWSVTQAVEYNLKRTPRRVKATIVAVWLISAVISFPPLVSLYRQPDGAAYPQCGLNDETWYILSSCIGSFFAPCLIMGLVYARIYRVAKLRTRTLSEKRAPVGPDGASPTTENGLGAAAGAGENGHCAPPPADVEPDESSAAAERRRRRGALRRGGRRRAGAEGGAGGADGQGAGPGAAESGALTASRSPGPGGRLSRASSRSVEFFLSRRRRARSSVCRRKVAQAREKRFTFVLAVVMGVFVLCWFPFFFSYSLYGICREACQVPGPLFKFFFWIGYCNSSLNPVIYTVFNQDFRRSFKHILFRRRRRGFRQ

SMILES | residual activity [1] | residual activity [2] | residual activity [3] | residual activity [4] | residual activity [5] | residual activity [6] | residual activity [7] | residual activity [8] | residual activity [9] | % Inhibition of Control Values (Mean n=2) [10] | residual activity [11] | inhibition [12] | % Inhibition of Control Specific Binding (Mean n=2) [13] | residual activity [14] | residual activity [15] | residual activity [16] | residual activity [17] | residual activity [18] | residual activity [19] | % Inhibition of Control Values (Mean n=2) [20] | other results
COc1ccc2c(c1)O[C@@H](c1ccc(OC)c(OC)c1)C[C@H]2NC(=O)C1(c2ccc3c(c2)OC(F)(F)O3)CC1 [A-1596586] | 89% | 100% | 100% | 92% | 81% | 85% | 100% | 100% | 100% | 1.2% | 92% | 2.95% | 7.1% | 100% | 100% | 93% | 96% | 78% | 84% | -9.3% | residual activity [21]: 100%; residual activity [22]: 96%; inhibition [23]: 15.8%; residual activity [24]: 92%; residual activity [25]: 92%; residual activity [26]: 100%; residual activity [27]: 100%; inhibition at 60 min, 10 µM [28]: 35%; residual activity [29]: 94%; residual activity [30]: 100%; residual activity [31]: 100%; residual activity [32]: 100%; residual activity [33]: 100%; % Inhibition of Control Specific Binding (Mean n=2) [34]: 2.8%; residual activity [35]: 90%; residual activity [36]: 100%
COc1ccc2c(c1)O[C@H](c1ccc(OC)c(OC)c1)C[C@@H]2NC(=O)C1(c2ccc3c(c2)OC(F)(F)O3)CC1 [A-1596584] | 100% | 92% | 100% | 100% | 92% | 100% | 97% | 100% | 100% | -2.1% | 98% | 16.1% | -3.6% | 98% | 79% | 94% | 100% | 100% | 87% | -17.9% | residual activity [21]: 100%; residual activity [22]: 100%; inhibition [23]: 10.1%; residual activity [24]: 65%; residual activity [25]: 100%; residual activity [26]: 84%; residual activity [27]: 72%; inhibition at 60 min, 10 µM [28]: 47.3%; residual activity [29]: 100%; residual activity [30]: 100%; residual activity [31]: 100%; residual activity [32]: 100%; residual activity [33]: 100%; % Inhibition of Control Specific Binding (Mean n=2) [34]: -8.6%; residual activity [35]: 100%; residual activity [36]: 100%
